Reference: the supplement of paper PMC10307832

Experiments:
Experiment in all cases: relative viability (nuclei count vs DMSO), 5 days (fraction); higher = more cells survive
[1] = compound: C1CNCCC1C2=CC(=NN2)C3=CC=NC=C3 + Cc1nc(Nc2ncc(C(=O)Nc3c(C)cccc3Cl)s2)cc(N2CCN(CCO)CC2)n1 [Dasatinib] (partner 0.075 µM)
Procedure, shortened: (§1)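 Lung cancer cell lines in 1536-well plates were dosed by pin tool the day after seeding, either with one drug alone or with a fixed anchor-drug dose plus five library-drug doses (not always all listed) in √10 steps. After 5 days, cells were fixed and their nuclei stained in one step (final 0.05% Triton X-100, 1% formaldehyde, 1 ug/ml Hoechst), then counted on 4× images. Relative viability is the nuclei count in treated wells divided by that in vehicle wells. Values are medians of duplicate plates.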

[2] = compound: C[C@@H](N)c1ccc(C(=O)Nc2ccnc3[nH]ccc23)cc1 + CC(=O)c1c(C)c2cnc(Nc3ccc(N4CCNCC4)cn3)nc2n(C2CCCC2)c1=O [Palbociclib] (partner 0.5 µM)
Procedure, shortened: as §1

[3] = compound: C[C@@H](N)c1ccc(C(=O)Nc2ccnc3[nH]ccc23)cc1 + Nc1nc2[nH]cc(CCc3ccc(C(=O)N[C@@H](CCC(=O)O)C(=O)O)cc3)c2c(=O)[nH]1 [Pemetrexed] (partner 0.2 µM)
Procedure, shortened: as §1

[4] = compound: C[C@@H](N)c1ccc(C(=O)Nc2ccnc3[nH]ccc23)cc1 + CC1(C)CCC(c2ccc(Cl)cc2)=C(CN2CCN(c3ccc(C(=O)NS(=O)(=O)c4ccc(N[C@H](CCN5CCOCC5)CSc5ccccc5)c(S(=O)(=O)C(F)(F)F)c4)cc3)CC2)C1 [Navitoclax] (partner 0.5 µM)
Procedure, shortened: as §1

Cell Line	relative viability ([1]; first compound 0.08 µM)	relative viability ([1]; first compound 0.8 µM)	relative viability ([1]; first compound 2.53 µM)	relative viability ([1]; first compound 8 µM)	relative viability ([2]; first compound 0.04 µM)	relative viability ([2]; first compound 0.1265 µM)	relative viability ([2]; first compound 0.4 µM)	relative viability ([2]; first compound 1.265 µM)	relative viability ([2]; first compound 4 µM)	relative viability ([3]; first compound 0.04 µM)	relative viability ([3]; first compound 0.1265 µM)	relative viability ([3]; first compound 0.4 µM)	relative viability ([3]; first compound 1.265 µM)	relative viability ([3]; first compound 4 µM)	relative viability ([4]; first compound 0.04 µM)	relative viability ([4]; first compound 0.1265 µM)	relative viability ([4]; first compound 0.4 µM)	relative viability ([4]; first compound 1.265 µM)	relative viability ([4]; first compound 4 µM)
201T	0.62	0.561	0.602	0.602	0.367	0.342	0.376	0.359	0.415	0.316	0.297	0.382	0.29	0.314	1.15	1.1	1.16	1.2	1.37
A549															1.23	1.31	1.18	1.21	0.714
A-427	0.639	0.751	0.731	0.703	0.472	0.553	0.388	0.432	0.421	0.827	0.985	0.815	0.671	0.726	1.02	0.992	0.993		0.855
ABC-1	0.55	0.563	0.652	0.497	0.662	0.775	0.789	0.976	0.552										
BEN	0.266	0.286	0.339	0.326	0.483	0.425	0.438	0.587	0.449	0.556	0.711	0.701	0.877	0.634	0.0518	0.0703	0.0684	0.0653	0.122
CAL-12T	0.49	0.49	0.625	0.475	0.558	0.438	0.519	0.161	0.428	1.23	1.39	1.43	1.49	1.27	1.3	1.33	1.48	1.77	1.47
COR-L23	0.532	0.417	0.518	0.469	0.231	0.357	0.305	0.235	0.215	0.204	0.195	0.188	0.201	0.178	1.03	1.16	0.886	0.766	0.481
COR-L 105	0.332	0.364	0.382	0.368	0.377	0.399	0.424	0.348	0.371	1	1.12	0.94	0.98	0.619	0.795	0.74	0.783	0.769	0.519
Calu-6															0.849	1.02	0.855	0.836	0.678
ChaGo-K-1	0.58	0.657	0.643	0.627	0.923	0.908	0.947	0.893	0.865	0.259	0.277	0.257	0.234	0.241	1.07	1.01	1.19		0.891
EBC-1															0.414	0.406	0.379	0.377	0.347
EKVX	0.576	0.565	0.645	0.525	0.413	0.415	0.432	0.38	0.28	0.365	0.383	0.566	0.354	0.379	0.914	1.15	1.32	1.07	0.807
EMC-BAC-2	0.261	0.349	0.352	0.395	0.473	0.501	0.474	0.48	0.436	0.401	0.422	0.452	0.471	0.402	1.28	1.18	1.21	1.4	0.977
EPLC-272H	0.392	0.348	0.393	0.415	0.39	0.356	0.384		0.427	0.251	0.339	0.312	0.238	0.225	1.14	1.26	1.26		0.975
H3255	0.352	0.378	0.369	0.488	0.299	0.298	0.298	0.336	0.286	0.556	0.554	0.552	0.555	0.501	0.554	0.846	0.769	0.575	0.45
HARA	0.217	0.3	0.196	0.187	0.292	0.271	0.28	0.214	0.248	0.191	0.209	0.257	0.249	0.236	1.14	1.2	1.19	1.27	0.889
HCC-15	0.556	0.646	0.639	0.609	0.705	0.704	0.704	0.694	0.674	0.242	0.242	0.209	0.212	0.233	0.712	0.689	0.738		0.645
HCC-44					0.929	0.96	1.02	1.15	1.02	0.594	0.603	0.636	0.707	0.627	0.979	0.99	1.15	0.946	0.698
HCC-78	0.352	0.257	0.356	0.369	0.456	0.45	0.544		0.482	0.942	0.928	0.906	0.98	0.963	1.08	0.79	1.2	1.11	0.782

Cell Line	relative viability ([1]; first compound 0.08 µM)	relative viability ([1]; first compound 0.8 µM)	relative viability ([1]; first compound 2.53 µM)	relative viability ([1]; first compound 8 µM)	relative viability ([2]; first compound 0.04 µM)	relative viability ([2]; first compound 0.1265 µM)	relative viability ([2]; first compound 0.4 µM)	relative viability ([2]; first compound 1.265 µM)	relative viability ([2]; first compound 4 µM)	relative viability ([3]; first compound 0.04 µM)	relative viability ([3]; first compound 0.1265 µM)	relative viability ([3]; first compound 0.4 µM)	relative viability ([3]; first compound 1.265 µM)	relative viability ([3]; first compound 4 µM)	relative viability ([4]; first compound 0.04 µM)	relative viability ([4]; first compound 0.1265 µM)	relative viability ([4]; first compound 0.4 µM)	relative viability ([4]; first compound 1.265 µM)	relative viability ([4]; first compound 4 µM)
HCC-366	0.405	0.898	0.618	0.594	0.474	0.392	0.379	0.455	0.383	0.154	0.148	0.163	0.241	0.184	1.04	1.15	1.16		0.923
HCC-827	0.366	0.228	0.302	0.308		0.442	0.478	0.476	0.433		0.272	0.268	0.292	0.264	0.872	0.993	0.971	1.05	0.843
HOP-62	0.691	0.635	0.703	0.648	0.454	0.463	0.449	0.411	0.397	0.286	0.344	0.252	0.298	0.288	1.08	0.959	1.06		0.85
IA-LM															0.799	0.93	0.929	1.03	0.989
LC-2-ad		0.647	0.761	0.739	0.472	0.53	0.458	0.413	0.411	0.263	0.267	0.248	0.279	0.259	0.398	0.566	0.585	0.346	0.262
LCLC-103H	0.462	0.505	0.396	0.537	0.473	0.478	0.433	0.423	0.388	0.417	0.426	0.493	0.51	0.407					
NCI-H358	0.118	0.16	0.149	0.143	0.145	0.134	0.141	0.133	0.145	0.183	0.189	0.18	0.165	0.16					
NCI-H522	0.841	0.869	0.896	0.967	1.03	0.986	1.1	1.02	0.874	0.842	1.09	0.956	1.05	1.01					
NCI-H596	0.602	0.562	0.654	0.664						0.528	0.534	0.504	0.509	0.41	1.01	1.2	0.96	1.06	0.955
NCI-H650	0.468	0.45	0.5	0.428		0.341	0.311		0.327		0.932	0.809		0.614					
NCI-H661	0.896	0.839	1.05	0.817	0.388	0.464	0.41	0.35	0.362	0.938	0.964	0.943	0.811	0.639					
NCI-H727	0.489	0.5	0.33	0.328	0.667	0.714	0.746	0.748	0.798						0.524	0.579	0.676	0.484	0.411
NCI-H1299															1.06	0.988	0.983	0.973	0.932
NCI-H1563	0.451	0.465	0.486	0.485						0.772	0.915	0.867	0.413	0.706					
NCI-H1623	0.574	0.38	0.557	0.563															
NCI-H1648					0.267	0.34	0.279	0.371	0.414	1.12	0.933	1.03	1.12	1.28					
NCI-H1703															1.28	1.11	1.06		0.616
NCI-H2342	0.343	0.268	0.357	0.41	0.513	0.53	0.596	0.498	0.532	0.781	0.803	0.792	0.847	0.794					
SW 900	0.568	0.445	0.519	0.452	0.564	0.607	0.547	0.581	0.611	0.465	0.478	0.475	0.5	0.474					
